ChEMBL document CHEMBL1144896 (2003)

Legend:
[1] = tested on: BJ; assay: Compound was tested for human telomerase reverse transcriptase-SEAP (hTERT-SEAP) activity in immortalized hTERT-BJI at 3.0 uM concentration; assay type: functional
[2] = tested on: NCI-H1299; assay: Compound was tested for human telomerase reverse transcriptase-SEAP (hTERT-SEAP) activity in non-small cell lung cancer H1299 cell at 30.0 uM concentration; assay type: functional
[3] = tested on: BJ; assay: Compound was tested for human telomerase reverse transcriptase-SEAP (hTERT-SEAP) activity in immortalized hTERT-BJI at 300.0 uM concentration; assay type: functional
[4] = tested on: NCI-H1299; assay: Compound was tested for human telomerase reverse transcriptase-SEAP (hTERT-SEAP) activity in non-small cell lung cancer H1299 cell at 3.0 uM concentration; assay type: functional
[5] = tested on: BJ; assay: hTERT-SEAP (Human telomerase reverse transcriptase-SEAP) activity in immortalized hTERT-BJI at 300.0 uM concentration and level of cell viability determined in MTT assay; assay type: functional
[6] = tested on: BJ; assay: hTERT-SEAP (Human telomerase reverse transcriptase-SEAP) activity in immortalized hTERT-BJI at 3.0 uM concentration and level of cell viability determined in MTT assay; assay type: functional
[7] = tested on: NCI-H1299; assay: hTERT-SEAP (Human telomerase reverse transcriptase-SEAP) activity in non-small cell lung cancer H1299 cell at 30.0 uM concentration and level of cell viability determined in MTT assay; assay type: functional
[8] = tested on: BJ; assay: Compound was tested for human telomerase reverse transcriptase-SEAP (hTERT-SEAP) activity in immortalized hTERT-BJI at 30.0 uM concentration; assay type: functional
[9] = tested on: BJ; assay: hTERT-SEAP (Human telomerase reverse transcriptase-SEAP) activity in immortalized hTERT-BJI at 30.0 uM concentration and level of cell viability determined in MTT assay; assay type: functional
[10] = tested on: NCI-H1299; assay: Compound was tested for human telomerase reverse transcriptase-SEAP (hTERT-SEAP) activity in non-small cell lung cancer H1299 cell at 300.0 uM concentration; assay type: functional
[11] = tested on: NCI-H1299; assay: hTERT-SEAP (Human telomerase reverse transcriptase-SEAP) activity in non-small cell lung cancer H1299 cell at 3.0 uM concentration and level of cell viability determined in MTT assay; assay type: functional
[12] = tested on: NCI-H1299; assay: hTERT-SEAP (Human telomerase reverse transcriptase-SEAP) activity in non-small cell lung cancer H1299 cell at 300.0 uM concentration and level of cell viability determined in MTT assay; assay type: functional
[13] = tested on: BJ; assay: hTERT-SEAP (Human telomerase reverse transcriptase-SEAP) activity in immortalized hTERT-BJI at 24 uM concentration and level of cell viability determined in MTT assay; assay type: functional
[14] = tested on: NCI-H1299; assay: hTERT-SEAP (Human telomerase reverse transcriptase-SEAP) activity in non-small cell lung cancer H1299 cell at 2.4 uM concentration and level of cell viability determined in MTT assay; assay type: functional
[15] = tested on: NCI-H1299; assay: hTERT-SEAP (Human telomerase reverse transcriptase-SEAP) activity in non-small cell lung cancer H1299 cell at 24 uM concentration and level of cell viability determined in MTT assay; assay type: functional
[16] = tested on: NCI-H1299; assay: Compound was tested for human telomerase reverse transcriptase-SEAP (hTERT-SEAP) activity in non-small cell lung cancer H1299 cell at 2.4 uM concentration; assay type: functional
[17] = tested on: BJ; assay: Compound was tested for human telomerase reverse transcriptase-SEAP (hTERT-SEAP) activity in immortalized hTERT-BJI at 240.0 uM concentration; assay type: functional
[18] = tested on: BJ; assay: Compound was tested for cytomegalovirus or (pPCMV-SEAP) activity in immortalized hTERT-BJ1 at 240 uM concentration; assay type: functional, Homo sapiens
[19] = tested on: BJ; assay: pPCMV-SEAP (cytomegalovirus-SEAP) activity in immortalized hTERT-BJ1 at 240 uM concentration and level of cell viability determined in MTT assay; assay type: functional, Homo sapiens
[20] = tested on: BJ; assay: Compound was tested for cytomegalovirus or (pPCMV-SEAP) activity in immortalized hTERT-BJ1 at 2.4 uM concentration; assay type: functional, Homo sapiens
[21] = tested on: BJ; assay: hTERT-SEAP (Human telomerase reverse transcriptase-SEAP) activity in immortalized hTERT-BJI at 240.0 uM concentration and level of cell viability determined in MTT assay; assay type: functional
[22] = tested on: NCI-H1299; assay: Compound was tested for human telomerase reverse transcriptase-SEAP (hTERT-SEAP) activity in non-small cell lung cancer H1299 cell at 24 uM concentration; assay type: functional
[23] = tested on: NCI-H1299; assay: hTERT-SEAP (Human telomerase reverse transcriptase-SEAP) activity in non-small cell lung cancer H1299 cell at 240.0 uM concentration and level of cell viability determined in MTT assay; assay type: functional
[24] = tested on: BJ; assay: Compound was tested for cytomegalovirus or (pPCMV-SEAP) activity in immortalized hTERT-BJ1 at 24 uM concentration; assay type: functional, Homo sapiens
[25] = tested on: NCI-H1299; assay: Compound was tested for human telomerase reverse transcriptase-SEAP (hTERT-SEAP) activity in non-small cell lung cancer H1299 cell at 240.0 uM concentration; assay type: functional
[26] = tested on: BJ; assay: Compound was tested for human telomerase reverse transcriptase-SEAP (hTERT-SEAP) activity in immortalized hTERT-BJI at 2.4 uM concentration; assay type: functional
[27] = tested on: BJ; assay: pPCMV-SEAP (cytomegalovirus-SEAP) activity in immortalized hTERT-BJ1 at 24 uM concentration and level of cell viability determined in MTT assay; assay type: functional, Homo sapiens
[28] = tested on: BJ; assay: pPCMV-SEAP (cytomegalovirus-SEAP) activity in immortalized hTERT-BJ1 at 2.4 uM concentration and level of cell viability determined in MTT assay; assay type: functional, Homo sapiens
[29] = tested on: BJ; assay: Compound was tested for human telomerase reverse transcriptase-SEAP (hTERT-SEAP) activity in immortalized hTERT-BJI at 24 uM concentration; assay type: functional

## CCSc1cccc2c1C(=O)c1cccc(SCC)c1C2=O
[1]
  Relative SEAP activity: 109%
[2]
  Relative SEAP activity: 111%
[3]
  Relative SEAP activity: 104%
[4]
  Relative SEAP activity: 134%
[5]
  Relative viability: 34%
[6]
  Relative viability: 112%
[7]
  Relative viability: 44%
[8]
  Relative SEAP activity: 110%
[9]
  Relative viability: 98%
[10]
  Relative SEAP activity: 99%
[11]
  Relative viability: 111%
[12]
  Relative viability: 25%

## CC(C)(C)C(=O)Oc1cccc2c1C(=O)c1cccc(OC(=O)C(C)(C)C)c1C2=O
[13]
  Relative viability: 93%
[14]
  Relative viability: 106%
[15]
  Relative viability: 97%
[16]
  Relative SEAP activity: 105%
[17]
  Relative SEAP activity: 141%
[18]
  Relative SEAP activity: 141%
[19]
  Relative viability: 103%
[20]
  Relative SEAP activity: 102%
[21]
  Relative viability: 100%
[22]
  Relative SEAP activity: 78%
[23]
  Relative viability: 70%
[24]
  Relative SEAP activity: 114%
[25]
  Relative SEAP activity: 80%
[26]
  Relative SEAP activity: 147%
[27]
  Relative viability: 104%
[28]
  Relative viability: 115%
[29]
  Relative SEAP activity: 165%
